Patent US4432973A, “Benzoyl- and α-hydroxybenzyl-phenyl-glycosides and application thereof in therapeutics” (Societe de Recherches Industrielles (S.O.R.I.), priority 1980, dated 1984)

Assays:
[1] = Anti-ulcer activity: ulcer caused by aspirin; type: in vivo, rat (male Wistar); details: 100 mg/kg I.P.; aspirin 192 mg/kg per os; standardised to control batch and cimetidine (index 1)
Protocol: The experiment is carried out on male Wistar rats of 180 to 200 g. The products to be tested are administered at 100 mg/kg I.P. (unless indicated to the contrary in Table IV).
At t=0, the rats are made to fast and a first administration of the product to be tested is made.
At t=18 hours, 2 ml of an ulcer-forming suspension with 192 mg of aspirin/kg are administered per os then a second administration of the product to be tested is made.
At t=22 hours, the animals are sacrificed and the ulcers are marked as follows: small point-like ulcers: mark 1 more extensive ulcers: mark 3 highly extensive or very deep ulcers: mark 9
This marking is standardised with respect to a control batch and to cimetidine (a reference product) to which index 1 has been allocated.

[2] = Acute toxicity in the mouse by the I.P. route; type: in vivo; details: for LD50: read-out: DL-50 (lethal dose involving the death of half of the animals)
From the text: The acute toxicity was studied in the mouse by the I.P. route. It is expressed in the form of DL-50 (lethal dose involving the death of half of the animals) or DL-0 (maximum non-lethal dose).

[3] = Anti-hypoxic activity: survival to hypoxia (nitrogen-oxygen 95:5); type: in vivo, mouse (Swiss male); details: I.P., 1/10th of LD-50 or 100 mg/kg when LD-0 ≥ 800 mg/kg; up to 15 minutes; mouse
Protocol: The experiment is carried out on batches of 20 Swiss male mice weighing from 20 to 30 g. Each product to be tested is administered to the mice by intraperitoneal route at a dose corresponding to 1/10th of the LD-50 or at a dose of 100 mg/kg when the LD-0 is higher than or equal to 800 mg/kg. The mice are placed in a nitrogen-oxygen (95:5) v/v atmosphere. The survival time of the mice is then measured up to 15 minutes maximum.
The results shown in Table VII are expressed in percentage of survival with respect to a non-treated control batch and a batch treated with an anti-hypoxic reference product [specialty known under the trade name of "Duxil" and which is constituted by a mixture of Almitrine bis-methanesulfonate and of Raubasine in the weight ratio 3:1], the anti-hypoxic reference product being administered at the dose of 18 mg/kg I.P.

Structure (SMILES) | Ulcer index [1] | Survival (survival percentage to hypoxic aggression) [3] | DL-0 (maximum non-lethal dose) ([2]; I.P.) [mg/kg IP] | further results
CC(=O)O[C@@H]1[C@@H](OC(C)=O)[C@H](Oc2ccc(C(=O)c3ccc(N(C)C)cc3)cc2)OC[C@H]1OC(C)=O [Example 116] | 0.44 | + (from 30 to 49%) |  | DL-0 (maximum non-lethal dose) ([2]; in vivo, ip): > 800 mg/kg IP
CC(=O)O[C@@H]1[C@@H](OC(C)=O)[C@H](Oc2ccc(C(=O)c3ccc(N=C=S)cc3)cc2)OC[C@H]1OC(C)=O [Example 42] |  |  | > 800 | 
O=C(c1ccc(O[C@@H]2OC[C@@H](OS(=O)(=O)O)[C@H](OS(=O)(=O)O)[C@H]2OS(=O)(=O)O)cc1)c1cccc([N+](=O)[O-])c1 [Example 72] | 0.47 |  |  | LD50 ([2]; in vivo, ip, I.P.): 650 mg/kg
OC(c1ccc(O[C@@H]2OC[C@@H](O)[C@H](O)[C@H]2O)cc1)c1cccc(C(F)(F)F)c1 (stereo partly shown) [Example 93] |  |  | > 800 | 
Cc1cc(C)c(C(=O)c2ccc(O[C@@H]3OC[C@@H](O)[C@H](O)[C@H]3O)cc2)c(C)c1 [Example 32] | 0.54 |  | > 800 | 
CC(=O)O[C@@H]1[C@@H](OC(C)=O)[C@H](Oc2ccc(C(=O)c3ccccc3C)cc2C)OC[C@H]1OC(C)=O [Example 103] | 0.65 | ++ (from 50 to 79%) |  | DL-0 (maximum non-lethal dose) ([2]; in vivo, ip): > 800 mg/kg IP
O=C(c1ccc(O[C@@H]2O[C@H](CO)[C@H](O)[C@H](O)[C@H]2O)cc1)c1ccc([N+](=O)[O-])cc1 [Example 20] | 0.62 |  | > 800 | 
COc1cc(C(=O)c2ccc(O[C@@H]3OC[C@@H](O)[C@H](O)[C@H]3O)cc2)cc(OC)c1OC [Example 33] | 0.46 |  | > 800 | 
CC(=O)N[C@H]1[C@H](Oc2ccc(C(=O)c3ccccc3C)cc2C)O[C@H](CO)[C@@H](O)[C@@H]1O [Example 122] | 0.91 | + (from 30 to 49%) |  | DL-0 (maximum non-lethal dose) ([2]; in vivo, ip): > 800 mg/kg IP
CC(=O)O[C@@H]1[C@@H](OC(C)=O)[C@H](Oc2ccc(C(=O)c3ccc([N+](=O)[O-])cc3)cc2)OC[C@H]1OC(C)=O [Example 41, [4-(4-nitrobenzoyl)-phenyl]-2,3,4-tri-(O-acetyl)-β-D-xylopyranoside] | 0.40 | +++ (higher than or equal to 80%) |  | DL-0 (maximum non-lethal dose) ([2]; in vivo, ip): > 800 mg/kg IP
O=C(c1ccc(C(F)(F)F)cc1)c1cccc(O[C@@H]2OC[C@@H](O)[C@H](O)[C@H]2O)c1 [Example 53, [3-(4-trifluoromethylbenzoyl)-phenyl]-β-D-xylopyranoside] | 0.64 |  |  | LD50 ([2]; in vivo, ip, I.P.): 550 mg/kg
CC(=O)O[C@@H]1[C@@H](OC(C)=O)[C@H](Oc2ccc(C(=O)c3cccc([N+](=O)[O-])c3)cc2)OC[C@H]1OC(C)=O [Example 80] | 1.00 |  | > 800 | 
Cc1cc(C(=O)c2ccc(Cl)cc2)cc(C)c1O[C@@H]1OC[C@@H](O)[C@H](O)[C@H]1O [Example 22] | 1.46 |  |  | LD50 ([2]; in vivo, ip, I.P.): 500 mg/kg
Cc1ccc(C(O)c2cccc(O[C@@H]3OC[C@@H](O)[C@H](O)[C@H]3O)c2)cc1 (single isomer, unassigned) [Example 107] |  |  |  | DL-50 (lethal dose involving the death of half of the animals) ([2]; I.P.): 550 mg/kg IP
CC(=O)OC[C@H]1O[C@@H](Oc2ccc(C(=O)c3ccc([N+](=O)[O-])cc3)cc2)[C@H](OC(C)=O)[C@@H](OC(C)=O)[C@@H]1OC(C)=O [Example 110] | 0.71 | ++ (from 50 to 79%) |  | DL-0 (maximum non-lethal dose) ([2]; in vivo, ip): > 800 mg/kg IP
CC(=O)N[C@H]1[C@H](Oc2c(C)cc(C(=O)c3ccccc3C)cc2C)O[C@H](CO)[C@@H](O)[C@@H]1O [Example 26] | 0.60 | + (from 30 to 49%) |  | LD50 ([2]; in vivo, ip, I.P.): 700 mg/kg
COC(=S)Nc1ccc(C(=O)c2ccc(O[C@@H]3OC[C@@H](O)[C@H](O)[C@H]3O)cc2)cc1 [Example 65] |  |  | > 800 | 
OC(c1ccc(Br)cc1)c1ccc(O[C@@H]2OC[C@@H](O)[C@H](O)[C@H]2O)cc1 (stereo partly shown) [Example 95] | 0.52 |  | > 800 | 
O=C(c1ccc(O[C@@H]2OC[C@@H](O)[C@H](O)[C@H]2O)cc1)c1ccc(Cl)cc1Cl [Example 31] | 1.04 |  | > 800 | 
Cc1ccc(C(O)c2ccc(O[C@@H]3OC[C@@H](O)[C@H](O)[C@H]3O)cc2)cc1 (stereo partly shown) [Example 90] | 0.57 |  | > 800 | 

Structure (SMILES) | Ulcer index [1] | Survival (survival percentage to hypoxic aggression) [3] | DL-0 (maximum non-lethal dose) ([2]; I.P.) [mg/kg IP] | further results
CC(=O)N[C@H]1[C@H](Oc2c(C)cc(C(=O)c3c(C)cccc3C)cc2C)O[C@H](CO)[C@@H](O)[C@@H]1O [Example 37] | 1.02 |  |  | LD50 ([2]; in vivo, ip, I.P.): 600 mg/kg
CC(=O)O[C@@H]1[C@@H](OC(C)=O)[C@H](Oc2cccc(C(=O)c3ccccc3)c2)OC[C@H]1OC(C)=O [Example 83] |  | ++ (from 50 to 79%) |  | DL-0 (maximum non-lethal dose) ([2]; in vivo, ip): > 800 mg/kg IP
CC(=O)O[C@@H]1[C@@H](OC(C)=O)[C@H](Oc2cccc(C(=O)c3ccc(Cl)cc3)c2)OC[C@H]1OC(C)=O [Example 82] |  |  | > 800 | 
Cc1cc(O)ccc1C(=O)c1cc(C)c(O[C@@H]2O[C@H](CO)[C@@H](O)[C@H](O)[C@H]2O)c(C)c1 [Example 27] | 0.42 |  | > 800 | 
O=C(c1ccc(Cl)cc1)c1ccc(O[C@@H]2O[C@H](CO)[C@@H](O)[C@H](O)[C@H]2O)cc1 [Example 124] |  | + (from 30 to 49%) |  | DL-0 (maximum non-lethal dose) ([2]; in vivo, ip): > 800 mg/kg IP
CC(=O)O[C@@H]1[C@@H](OC(C)=O)[C@H](Oc2ccc(C(=O)c3c(C)cc(C)cc3C)cc2)OC[C@H]1OC(C)=O [Example 73] | 0.52 |  | > 800 | 
Cc1ccc(C(=O)c2cccc(O[C@@H]3OC[C@@H](O)[C@H](O)[C@H]3O)c2)cc1 [Example 49] | 1.21 |  | > 800 | 
Cc1cc(C(=O)c2ccc(Cl)cc2)ccc1O[C@@H]1OC[C@@H](O)[C@H](O)[C@H]1O [Example 28] |  | ++ (from 50 to 79%) |  | DL-0 (maximum non-lethal dose) ([2]; in vivo, ip): > 800 mg/kg IP
O=[N+]([O-])c1ccc(C(O)c2ccc(O[C@@H]3O[C@H](CO)[C@@H](O)[C@H](O)[C@H]3O)cc2)cc1 (stereo partly shown) [Example 129] |  |  | > 800 | 
CC(=O)N[C@H]1[C@H](Oc2ccc(C(O)c3ccc(C)cc3)cc2)O[C@H](CO)[C@@H](O)[C@@H]1O (stereo partly shown) [Example 128] |  | ++ (from 50 to 79%) |  | DL-0 (maximum non-lethal dose) ([2]; in vivo, ip): > 800 mg/kg IP
CC(=O)N[C@H]1[C@H](Oc2c(C)cc(C(=O)c3ccccc3C)cc2C)O[C@H](COS(=O)(=O)O)[C@@H](OS(=O)(=O)O)[C@@H]1OS(=O)(=O)O [Example 68] |  |  | > 800 | 
CC(=O)O[C@@H]1[C@@H](OC(C)=O)[C@H](Oc2ccc(C(=O)c3ccccc3[N+](=O)[O-])cc2)OC[C@H]1OC(C)=O [Example 78] |  |  | > 800 | 
Cc1cc(C(=O)c2ccccc2)cc([N+](=O)[O-])c1O[C@@H]1OC[C@@H](O)[C@H](O)[C@H]1O [Example 25] | 0.54 |  |  | LD50 ([2]; in vivo, ip, I.P.): 330 mg/kg
O=C(c1ccccc1)c1ccc(O[C@@H]2O[C@H](CO)[C@@H](O)[C@H](O)[C@H]2O)cc1 [Example 126] |  | + (from 30 to 49%) |  | DL-0 (maximum non-lethal dose) ([2]; in vivo, ip): > 800 mg/kg IP
O=C(c1ccc(Cl)cc1)c1cccc(O[C@@H]2OC[C@@H](O)[C@H](O)[C@H]2O)c1 [Example 48] | 0.75 |  |  | LD50 ([2]; in vivo, ip, I.P.): 220 mg/kg
COc1cc(C(=O)c2ccc(O[C@@H]3OC[C@@H](OC(C)=O)[C@H](OC(C)=O)[C@H]3OC(C)=O)cc2)cc(OC)c1O [Example 84] |  |  | > 800 | 
Cc1ccccc1C(=O)c1cccc(O[C@@H]2OC[C@@H](O)[C@H](O)[C@H]2O)c1 [Example 52] |  |  | > 800 | 
CC(=O)O[C@@H]1[C@@H](OC(C)=O)[C@H](Oc2ccc(C(=O)c3ccc(Cl)cc3Cl)cc2)OC[C@H]1OC(C)=O [Example 74] | 0.91 |  | > 800 | 
CC(=O)N[C@H]1[C@H](Oc2ccc(C(=O)c3ccccc3Cl)cc2)O[C@H](CO)[C@@H](O)[C@@H]1O [Example 120] |  | +++ (higher than or equal to 80%) |  | DL-0 (maximum non-lethal dose) ([2]; in vivo, ip): > 800 mg/kg IP
Cc1ccc(C(=O)c2ccc(O[C@@H]3O[C@H](CO)[C@@H](O)[C@H](O)[C@H]3O)cc2)cc1 [Example 127] |  | ++ (from 50 to 79%) |  | LD50 ([2]; in vivo, ip, I.P.): 700 mg/kg
